From patent US4570013A, “Biphenylylalkanoic acid derivatives, methods of preparation and pharmaceutical compositions therefrom” (Dr. L. Zambeletti S.p.A., priority 1983, dated 1986)
Read-outs that look alike come from different tables or passages of the source.

Legend:
[1] = system: writhings caused by 2-phenylparabenzoquinone in mice; test: writhing test (method of Siegmund), 2-phenylparabenzoquinone, analgesic activity; type: in vivo, Swiss mice; conditions: for Contorsions % (change vs controls) / No. Contorsions: orally at ED50: biphenylylacetic acid 12, Ia 32 mg/kg; for ED50: Mus musculus, po
Description: The analgesic activity has been studied according to the method described by Siegmund (E. Siegmund et al, Proc. Soc. Exptl. Biol. Med., 95, 729 (1957)), according to which the algogenic stimulus consists of the intraperitoneal injection of 2-phenylparabenzoquinone and the algesia manifests itself in repeated abdominal contractions with an extension of the rear limbs and contorsions of the body ("writhing test").

in vivo = conditions: rat, po
[2] = system: Hyperthermia caused by brewer's yeast in rats; test: brewer's yeast hyperthermia (method of C. Winter), antipyretic activity; type: in vivo; conditions: for ED50: Rattus norvegicus, po, rats, os, read-out: Antipyretic activity (temperature increase by brewer's yeast, in rats) ED50
Description: The antipyretic activity has been studied according to the method of C. Winter, Toxicol. and Appl. Pharmacol., 5, 247 (1963), in rats, by determining the ability of the substance to reduce the increase of body temperature caused by the subcutaneous administration of brewer's yeast.

[3] = system: oedema induced in the rats' paw by intradermic injection of carrageenin; test: carrageenin-induced paw oedema (method of Winter), antiinflammatory activity; type: in vivo; conditions: Rattus norvegicus, po, os, read-out: Antiinflammatory activity (oedema caused by carrageenin in rats) ED50

SMILES: O=C(O)Cc1ccc(-c2ccccc2)cc1 [reference compound]
- Contorsions % (change vs controls) ([1]; 5 minutes): -27%
- No. Contorsions ([1]; 5 minutes): 33.4 ± 3.0
- Contorsions % (change vs controls) ([1]; 15 minutes): -41%
- No. Contorsions ([1]; 15 minutes): 31.0 ± 4.7
- Contorsions % (change vs controls) ([1]; 30 minutes): -57%
- No. Contorsions ([1]; 30 minutes): 21.3 ± 2.6
- Contorsions % (change vs controls) ([1]; 1 hour): -49%
- No. Contorsions ([1]; 1 hour): 25.6 ± 2.9
- Contorsions % (change vs controls) ([1]; 2 hours): -42%
- No. Contorsions ([1]; 2 hours): 25.1 ± 2.8
- Contorsions % (change vs controls) ([1]; 3 hours): -47%
- No. Contorsions ([1]; 3 hours): 26.0 ± 4.0
- Contorsions % (change vs controls) ([1]; 4 hours): -28%
- No. Contorsions ([1]; 4 hours): 34.9 ± 3.6
- Contorsions % (change vs controls) ([1]; 5 hours): -1%
- No. Contorsions ([1]; 5 hours): 45.0 ± 2.3
- ED50 ([1]; mice, orally, read-out: ED50, analgesic activity (writhing test)): 12 mg/kg
- TD50 (in vivo): 16.5 mg/kg
- Temperature change Δt after administration of the substance ([2]; 3 mg/kg os, 1 h): -0.48 °C
- Temperature after administration of the substance, t ([2]; 3 mg/kg os, 2 h): 37.81±0.05 °C
- Temperature change Δt after administration of the substance ([2]; 3 mg/kg os, 2 h): -0.65 °C
- P/S, ratio of protected animals with respect to total screened animals ([2]; 3 mg/kg os, 3 h): 2/10
- Temperature after administration of the substance, t ([2]; 3 mg/kg os, 3 h): 37.69±0.08 °C
- Temperature change Δt after administration of the substance ([2]; 3 mg/kg os, 3 h): -0.70 °C
- Temperature after administration of the substance, t ([2]; 3 mg/kg os, 4 h): 37.89±0.08 °C
- Temperature change Δt after administration of the substance ([2]; 3 mg/kg os, 4 h): -0.41 °C
- Temperature after administration of the substance, t ([2]; 3 mg/kg os, 5 h): 38.12±0.13 °C
- Temperature change Δt after administration of the substance ([2]; 3 mg/kg os, 5 h): -0.14 °C
- Temperature after administration of the substance, t ([2]; 3 mg/kg os, 6 h): 38.19±0.11 °C
- Temperature change Δt after administration of the substance ([2]; 3 mg/kg os, 6 h): -0.05 °C
- Temperature after administration of the substance, t ([2]; 6 mg/kg os, 1 h): 37.80±0.09 °C
- Temperature change Δt after administration of the substance ([2]; 6 mg/kg os, 1 h): -0.84 °C
- Temperature after administration of the substance, t ([2]; 6 mg/kg os, 2 h): 37.46±0.09 °C
- Temperature change Δt after administration of the substance ([2]; 6 mg/kg os, 2 h): -1.00 °C
- P/S, ratio of protected animals with respect to total screened animals ([2]; 6 mg/kg os, 3 h): 5/10
- Temperature after administration of the substance, t ([2]; 6 mg/kg os, 3 h): 37.28±0.07 °C
- Temperature change Δt after administration of the substance ([2]; 6 mg/kg os, 3 h): -1.11 °C
- Temperature after administration of the substance, t ([2]; 6 mg/kg os, 4 h): 37.40±0.09 °C
- Temperature change Δt after administration of the substance ([2]; 6 mg/kg os, 4 h): -0.90 °C
- Temperature after administration of the substance, t ([2]; 6 mg/kg os, 5 h): 37.65±0.10 °C
- Temperature change Δt after administration of the substance ([2]; 6 mg/kg os, 5 h): -0.63 °C
- Temperature after administration of the substance, t ([2]; 6 mg/kg os, 6 h): 37.81±0.12 °C
- Temperature change Δt after administration of the substance ([2]; 6 mg/kg os, 6 h): -0.37 °C
- Temperature after administration of the substance, t ([2]; 12 mg/kg os, 1 h): 37.71±0.08 °C
- Temperature change Δt after administration of the substance ([2]; 12 mg/kg os, 1 h): -0.93 °C
- Temperature after administration of the substance, t ([2]; 12 mg/kg os, 2 h): 37.33±0.06 °C
- Temperature change Δt after administration of the substance ([2]; 12 mg/kg os, 2 h): -1.13 °C
- P/S, ratio of protected animals with respect to total screened animals ([2]; 12 mg/kg os, 3 h): 8/10
- Temperature after administration of the substance, t ([2]; 12 mg/kg os, 3 h): 37.09±0.07 °C
- Temperature change Δt after administration of the substance ([2]; 12 mg/kg os, 3 h): -1.30 °C
- Temperature after administration of the substance, t ([2]; 12 mg/kg os, 4 h): 37.18±0.07 °C
- Temperature change Δt after administration of the substance ([2]; 12 mg/kg os, 4 h): -1.12 °C
- Temperature after administration of the substance, t ([2]; 12 mg/kg os, 5 h): 37.43±0.08 °C
- Temperature change Δt after administration of the substance ([2]; 12 mg/kg os, 5 h): -0.93 °C
- Temperature after administration of the substance, t ([2]; 12 mg/kg os, 6 h): 37.58 °C
- Temperature change Δt after administration of the substance ([2]; 12 mg/kg os, 6 h): -0.66 °C
- ED50 [2]: 6 mg/kg
- ED50 [3]: 10.9 mg/kg

SMILES: O=C(Cc1ccc(-c2ccccc2)cc1)Nc1ccccn1 [Diphenpyramide, N-2-pyridinyl-(1,1'-biphenyl)-4-acetamide]
- ED50 ([1]; read-out: Analgesic activity (against pain caused by 2-phenyl-p-benzo-quinone in mice) ED50): 97 mg/kg
- TD50 (in vivo): 76 mg/kg
- ED50 [2]: 22.5 mg/kg
- ED50 [3]: 19.9 mg/kg
